{"source": "paper PMC6839502", "about": "(Journal of Alzheimer's Disease, 2019)", "assay": "Safety and tolerability", "format": "in vivo, human", "key": {"[1]": {"conditions": "5 mg QD 14 days, healthy adults, 8 evaluable"}, "[2]": {"conditions": "15 mg QD 14 days, healthy adults, 8 evaluable"}, "[3]": {"conditions": "50 mg QD 14 days, healthy adults, 8 evaluable"}, "[4]": {"conditions": "50 mg QD 14 days, healthy older subjects, 10 evaluable"}, "[5]": {"conditions": "125 mg QD 14 days, healthy adults, 12 evaluable"}, "[6]": {"conditions": "125 mg QD 14 days, healthy older subjects, 8 evaluable"}}}
{"smiles": "C[C@H]1C[C@H]2CSC(N)=N[C@@]2(c2nc(NC(=O)c3ccc(OC(F)F)cn3)cs2)CO1", "note": "[PF-06751979]", "values": [{"measurement": "Back pain, all-causality", "setting": "[1]", "result": 0}, {"measurement": "Fatigue (MedDRA preferred term), all-causality", "setting": "[1]", "result": 0}, {"measurement": "Headache (MedDRA preferred term), all-causality", "setting": "[1]", "result": 0}, {"measurement": "Hepatic enzyme increased, all-causality", "setting": "[1]", "result": 0}, {"measurement": "Insomnia, all-causality", "setting": "[1]", "result": 0}, {"measurement": "Musculoskeletal discomfort, all-causality", "setting": "[1]", "result": 0}, {"measurement": "Number of AEs, all-causality treatment-emergent", "setting": "[1]", "result": "1 (1)"}, {"measurement": "Number of AEs, treatment related", "setting": "[1]", "result": "1 (1)"}, {"measurement": "Number of subjects with AEs, all-causality", "setting": "[1]", "result": "1 (1)"}, {"measurement": "Number of subjects with AEs, treatment related", "setting": "[1]", "result": "1 (1)"}, {"measurement": "Number of subjects with SAEs", "setting": "[1]", "result": 0}, {"measurement": "Number of subjects with discontinuation due to AEs", "setting": "[1]", "result": 0}, {"measurement": "Number of subjects with severe AEs", "setting": "[1]", "result": 0}, {"measurement": "Number of subjects with temporary discontinuation or dose reduction due to AEs", "setting": "[1]", "result": 0}, {"measurement": "Paresthesia, all-causality", "setting": "[1]", "result": 0}, {"measurement": "Procedural pain, all-causality", "setting": "[1]", "result": 0}, {"measurement": "Back pain, all-causality", "setting": "[2]", "result": 0}, {"measurement": "Fatigue (MedDRA preferred term), all-causality", "setting": "[2]", "result": 0}, {"measurement": "Headache (MedDRA preferred term), all-causality", "setting": "[2]", "result": "1 (1)"}, {"measurement": "Headache, treatment related", "setting": "[2]", "result": "1 (1)"}, {"measurement": "Hepatic enzyme increased, all-causality", "setting": "[2]", "result": "1 (1)"}, {"measurement": "Hepatic enzyme increased, treatment related", "setting": "[2]", "result": "1 (1)"}, {"measurement": "Insomnia, all-causality", "setting": "[2]", "result": 0}, {"measurement": "Musculoskeletal discomfort, all-causality", "setting": "[2]", "result": 0}, {"measurement": "Number of AEs, all-causality treatment-emergent", "setting": "[2]", "result": "2 (2)"}, {"measurement": "Number of AEs, treatment related", "setting": "[2]", "result": "2 (2)"}, {"measurement": "Number of subjects with AEs, all-causality", "setting": "[2]", "result": "2 (2)"}, {"measurement": "Number of subjects with AEs, treatment related", "setting": "[2]", "result": "2 (2)"}, {"measurement": "Number of subjects with SAEs", "setting": "[2]", "result": 0}, {"measurement": "Number of subjects with discontinuation due to AEs", "setting": "[2]", "result": 0}, {"measurement": "Number of subjects with severe AEs", "setting": "[2]", "result": 0}, {"measurement": "Number of subjects with temporary discontinuation or dose reduction due to AEs", "setting": "[2]", "result": 0}, {"measurement": "Paresthesia, all-causality", "setting": "[2]", "result": 0}, {"measurement": "Procedural pain, all-causality", "setting": "[2]", "result": 0}, {"measurement": "ALT peak, one subject", "setting": "15 mg QD, Day 21", "result": 7.7, "unit": "×ULN"}, {"measurement": "AST peak, one subject", "setting": "15 mg QD, Day 21", "result": 5.6, "unit": "×ULN"}, {"measurement": "Back pain, all-causality", "setting": "[3]", "result": 0}, {"measurement": "Fatigue (MedDRA preferred term), all-causality", "setting": "[3]", "result": 0}, {"measurement": "Headache (MedDRA preferred term), all-causality", "setting": "[3]", "result": 0}, {"measurement": "Hepatic enzyme increased, all-causality", "setting": "[3]", "result": 0}, {"measurement": "Insomnia, all-causality", "setting": "[3]", "result": 0}, {"measurement": "Musculoskeletal discomfort, all-causality", "setting": "[3]", "result": 0}, {"measurement": "Number of AEs, all-causality treatment-emergent", "setting": "[3]", "result": "1 (1)"}, {"measurement": "Number of AEs, treatment related", "setting": "[3]", "result": "1 (1)"}, {"measurement": "Number of subjects with AEs, all-causality", "setting": "[3]", "result": "1 (1)"}, {"measurement": "Number of subjects with AEs, treatment related", "setting": "[3]", "result": "1 (1)"}, {"measurement": "Number of subjects with SAEs", "setting": "[3]", "result": 0}, {"measurement": "Number of subjects with discontinuation due to AEs", "setting": "[3]", "result": 0}, {"measurement": "Number of subjects with severe AEs", "setting": "[3]", "result": 0}, {"measurement": "Number of subjects with temporary discontinuation or dose reduction due to AEs", "setting": "[3]", "result": 0}, {"measurement": "Paresthesia, all-causality", "setting": "[3]", "result": 0}, {"measurement": "Procedural pain, all-causality", "setting": "[3]", "result": 0}, {"measurement": "Abnormal dreams, all-causality", "setting": "[4]", "result": "2 (2)"}, {"measurement": "Abnormal dreams, treatment related", "setting": "[4]", "result": "2 (2)"}, {"measurement": "Dizziness, all-causality", "setting": "[4]", "result": 1}, {"measurement": "Dizziness, treatment related", "setting": "[4]", "result": 0}, {"measurement": "Fatigue (MedDRA preferred term), all-causality", "setting": "[4]", "result": "1 (1)"}, {"measurement": "Fatigue, treatment related", "setting": "[4]", "result": "1 (1)"}, {"measurement": "Headache (MedDRA preferred term), all-causality", "setting": "[4]", "result": 1}, {"measurement": "Headache, treatment related", "setting": "[4]", "result": 0}, {"measurement": "Number of AEs, all-causality treatment-emergent", "setting": "[4]", "result": 15}, {"measurement": "Number of AEs, treatment related", "setting": "[4]", "result": 9}, {"measurement": "Number of subjects with AEs, all-causality", "setting": "[4]", "result": 7}, {"measurement": "Number of subjects with AEs, treatment related", "setting": "[4]", "result": 6}, {"measurement": "Number of subjects with SAEs", "setting": "[4]", "result": 0}, {"measurement": "Number of subjects with discontinuation due to AEs", "setting": "[4]", "result": 0}, {"measurement": "Number of subjects with severe AEs", "setting": "[4]", "result": 0}, {"measurement": "Number of subjects with temporary discontinuation or dose reduction due to AEs", "setting": "[4]", "result": 0}, {"measurement": "Back pain, all-causality", "setting": "[5]", "result": 2}, {"measurement": "Back pain, treatment related", "setting": "[5]", "result": 0}, {"measurement": "Fatigue (MedDRA preferred term), all-causality", "setting": "[5]", "result": "2 (2)"}, {"measurement": "Fatigue, treatment related", "setting": "[5]", "result": "2 (2)"}, {"measurement": "Headache (MedDRA preferred term), all-causality", "setting": "[5]", "result": 3}, {"measurement": "Headache, treatment related", "setting": "[5]", "result": 1}, {"measurement": "Hepatic enzyme increased, all-causality", "setting": "[5]", "result": 1}, {"measurement": "Hepatic enzyme increased, treatment related", "setting": "[5]", "result": 0}, {"measurement": "Insomnia, all-causality", "setting": "[5]", "result": "1 (1)"}, {"measurement": "Insomnia, treatment related", "setting": "[5]", "result": "1 (1)"}, {"measurement": "Musculoskeletal discomfort, all-causality", "setting": "[5]", "result": 3}, {"measurement": "Musculoskeletal discomfort, treatment related", "setting": "[5]", "result": 0}, {"measurement": "Number of AEs, all-causality treatment-emergent", "setting": "[5]", "result": 22}, {"measurement": "Number of AEs, treatment related", "setting": "[5]", "result": 6}, {"measurement": "Number of subjects with AEs, all-causality", "setting": "[5]", "result": 10}, {"measurement": "Number of subjects with AEs, treatment related", "setting": "[5]", "result": 4}, {"measurement": "Number of subjects with SAEs", "setting": "[5]", "result": 0}, {"measurement": "Number of subjects with discontinuation due to AEs", "setting": "[5]", "result": 0}, {"measurement": "Number of subjects with severe AEs", "setting": "[5]", "result": 0}, {"measurement": "Number of subjects with temporary discontinuation or dose reduction due to AEs", "setting": "[5]", "result": 0}, {"measurement": "Paresthesia, all-causality", "setting": "[5]", "result": 1}, {"measurement": "Paresthesia, treatment related", "setting": "[5]", "result": 0}, {"measurement": "Procedural pain, all-causality", "setting": "[5]", "result": 2}, {"measurement": "Procedural pain, treatment related", "setting": "[5]", "result": 0}, {"measurement": "Abnormal dreams, all-causality", "setting": "[6]", "result": 0}, {"measurement": "Dizziness, all-causality", "setting": "[6]", "result": 0}, {"measurement": "Fatigue (MedDRA preferred term), all-causality", "setting": "[6]", "result": "1 (1)"}, {"measurement": "Fatigue, treatment related", "setting": "[6]", "result": "1 (1)"}, {"measurement": "Headache (MedDRA preferred term), all-causality", "setting": "[6]", "result": "1 (1)"}, {"measurement": "Headache, treatment related", "setting": "[6]", "result": "1 (1)"}, {"measurement": "Number of AEs, all-causality treatment-emergent", "setting": "[6]", "result": 11}, {"measurement": "Number of AEs, treatment related", "setting": "[6]", "result": 7}, {"measurement": "Number of subjects with AEs, all-causality", "setting": "[6]", "result": 6}, {"measurement": "Number of subjects with AEs, treatment related", "setting": "[6]", "result": 5}, {"measurement": "Number of subjects with SAEs", "setting": "[6]", "result": 0}, {"measurement": "Number of subjects with discontinuation due to AEs", "setting": "[6]", "result": 0}, {"measurement": "Number of subjects with severe AEs", "setting": "[6]", "result": 0}]}
